The assay relates to HIV-1 (IIIB) in MT-4 cells. The assay can be described thus: microbe, parasite or virus in culture. Format: cell-based. Particulars: HIV-1, read-out: MT4 EC50. How it is done:
Compounds were serially diluted (1:3) in DMSO on 384-well polypropylene plates and further diluted 200-fold into complete RPMI media (10% FBS, 1% P/S) using the Biotek Micro Flow and Agilent ECHO acoustic dispenser. Each plate contained up to 8 test compounds, with negative (No Drug Control) and 5 uM AZT positive controls. MT-4 cells were pre-infected with 10 uL of either RPMI (mock-infected) or a fresh 1:250 dilution of an HIV-1 (IIIB) concentrated virus stock. Infected and uninfected MT-4 cells were further diluted in complete RPMI media and added to each plate using a Micro Flow dispenser. After 5 days incubation in a humidified and temperature controlled incubator (37° C.), Cell Titer Glo (Promega) was added to the assay plates to quantify the amount of luciferase.

Setting [1] is: Human immunodeficiency virus 1, IIIB, MT4, MT-4 cells.

Our source for the EC50 values is patent US10774053B2, “HIV protease inhibitors” (Gilead Sciences, Inc., priority 2017, dated 2020).

Read-outs that look alike come from different tables or passages of the source.

By EC50 is commonly meant the concentration needed to bring the measured effect to its halfway point. For `CC(C)(C)C[C@]1(c2ccc(-c3cnn(C(F)F)c3)cc2)NC(=N)N([C@H](COC(=O)NC2CC2)c2ccc(Cl)c(-n3cncn3)c2)C1=O` [Compound 235], the concentration giving a half-maximal response (EC50) under setting [1] came out at 9.61 nM.

As for `CC(C)(C)C[C@]1(c2ccc(-c3cnn(C(F)F)c3)cc2)NC(=N)N([C@H](COC(=O)N[C@H]2C[C@@H]2F)c2ccc(Cl)c(-n3ncnc3C(F)F)c2)C1=O` [Compound 338], the concentration giving a half-maximal response (EC50) under setting [1] was 9.94 nM.

With `Cn1ncnc1-c1cc([C@@H](COC(=O)NC(C)(C)C(F)F)N2C(=N)N[C@](CC(C)(C)F)(c3ccc(-c4cnn(C(F)F)c4)cc3)C2=O)ccc1Cl` [Compound 128], under setting [1], the EC50 is 85 nM.

As for `CN(C)C(=O)OC[C@H](c1ccc(Cl)c(-c2ncc(N3CCOCC3)s2)c1)N1C(=N)N[C@@](c2cc(F)cc(F)c2)(C2CC2)C1=O` [Compound 3], the EC50 under setting [1] turned out to be 5710 nM.

In the case of `CC(C)(C)C[C@]1(c2ccc(-c3cnn(C(F)F)c3)cc2)NC(=N)N([C@H](COC(=O)NC2(C)CC2)c2ccc(Cl)c(-n3cc(C#N)cn3)c2)C1=O` [Compound 265], the EC50 under setting [1] worked out at 17.9 nM.

Take `CC(C)(C)C[C@]1(c2ccc(-c3ncccn3)cc2F)NC(=N)N([C@H](COC(=O)NC2(C(F)(F)F)CC2)c2ccc(Cl)c(-c3ncn[nH]3)c2)C1=O` [Compound 112]: the EC50 under setting [1] was found to be 40.4 nM.

With `C[C@@H](CC#N)C[C@]1(c2ccc(-c3cnn(C(F)F)c3)cc2)NC(=N)N([C@H](COC(=O)NC2(C(F)(F)F)CC2)c2ccc(Cl)c(-n3ncnc3C(F)F)c2)C1=O` (single isomer, unassigned) [Compound 346], the concentration for a half-maximal effect (EC50) under setting [1] is 31.9 nM.

With `CC(C)(C)C[C@]1(c2ccc(-c3cnn(C4CC4)c3)cc2)NC(=N)N([C@H](COC(=O)NC2(C(F)(F)F)CC2)c2ccc(Cl)c(-n3ncnc3C(F)F)c2)C1=O` [Compound 207], the EC50 under setting [1] amounted to 13.9 nM.

As to `CC(C)(C)C[C@]1(c2ccc(-c3cnn(C4CC4)c3)c(F)c2)NC(=N)N([C@H](COC(=O)NC2CC2(F)F)c2ccc(Cl)c(-n3ncnc3C(F)F)c2)C1=O` (some centres unmarked) [Compound 298], the EC50 under setting [1] turned out to be 7.83 nM.

For the compound `Cn1ccc(-c2ccc([C@@]3(CC(C)(C)C)NC(=N)N([C@H](COC(=O)NC4(C(F)(F)F)CC4)c4ccc(Cl)c(-n5ncnc5C(F)F)c4)C3=O)cc2)n1` [Compound 206], the EC50 under setting [1] amounted to 6.74 nM.

In the case of `CC(C)(C)C[C@]1(c2ccc(-c3cnn(C(F)F)c3)cc2)NC(=N)N([C@H](COC(=O)N2CC(S(C)(=O)=O)C2)c2ccc(Cl)c(-c3ncn[nH]3)c2)C1=O` [Compound 84], the EC50 under setting [1] was found to be 1050 nM.

Turning to `CC(C)(C)C[C@]1(c2ccc(-c3cnn(C(F)F)c3)cc2)NC(=N)N([C@H](COC(=O)Nc2ccccn2)c2ccc(Cl)c(-c3ncn[nH]3)c2)C1=O` [Compound 108], the concentration for a half-maximal effect (EC50) under setting [1] came to 85.8 nM.

For `CC(C)(C)C[C@]1(c2ccc(-c3cnn(C4CC4)c3)c(F)c2F)NC(=N)N([C@H](COC(=O)NC2(C(F)(F)F)CC2)c2ccc(Cl)c(-c3ncnn3C(F)F)c2)C1=O` [Compound 136], under setting [1], the half-maximal effective concentration (EC50) worked out at 7.91 nM.

For `CC(C)(C)C[C@]1(c2ccc(-c3cnn(C(F)F)c3)cc2)NC(=N)N([C@H](COC(=O)N(CC(F)F)C2CC2)c2ccc(Cl)c(-c3ncn[nH]3)c2)C1=O` [Compound 80], the concentration for a half-maximal effect (EC50) under setting [1] stood at 28.8 nM.

Turning to `CC(C)(F)C[C@]1(c2ccc(Br)cc2)NC(=N)N([C@H](COC(=O)NC(C)(C)C(F)F)c2ccc(Cl)c(-c3ncnn3C(F)F)c2)C1=O` [Compound 126], under setting [1], the EC50 is 242 nM.

For the compound `CC(C)(C)C[C@]1(c2ccc(-c3cnn(C4CC4)n3)c(F)c2)NC(=N)N([C@H](COC(=O)NC2(C(F)(F)F)CC2)c2ccc(Cl)c(-n3ncnc3C(F)F)c2)C1=O` [Compound 225], the concentration for a half-maximal effect (EC50) under setting [1] amounted to 17.4 nM.

Consider `CC(C)(C)C[C@]1(c2ccc(-c3cn(C4CC4)nn3)cc2)NC(=N)N([C@H](COC(=O)NC2(C(F)(F)F)CC2)c2ccc(Cl)c(-c3ncnn3C(F)F)c2)C1=O` [Compound 137], for which the concentration giving a half-maximal response (EC50) under setting [1] was found to be 19.5 nM.

As to `CC(C)(C)C[C@]1(c2ccc(-c3cnccn3)cc2)NC(=N)N([C@H](COC(=O)NC2(C(F)(F)F)CC2)c2ccc(Cl)c(-c3ncn[nH]3)c2)C1=O` [Compound 27], under setting [1], the concentration for a half-maximal effect (EC50) is 80.4 nM.

Turning to `CC(C)(C)C[C@]1(c2ccc(-c3ncccn3)cc2)NC(=N)N([C@H](CO)c2ccc(Cl)c(-n3cncn3)c2)C1=O` [Compound 245], under setting [1], the EC50 is 239 nM.

On to `CC(C)(C)C[C@]1(c2ccc(-c3cnn(C(F)F)c3)cc2)NC(=N)N([C@H](COC(=O)NCC(F)F)c2ccc(Cl)c(-n3ncnc3C(F)F)c2)C1=O` [Compound 219], for which the EC50 under setting [1] amounted to 8.8 nM.

Turning to `CC(C)(C)C[C@]1(c2ccc(-c3cnn(C(F)F)c3)cc2)NC(=N)N([C@H](COC(=O)NC(C)(C)C)c2ccc(Cl)c(-n3ncnc3C(F)F)c2)C1=O` [Compound 183], the concentration giving a half-maximal response (EC50) under setting [1] turned out to be 12 nM.

As for `CC(C)(C)C[C@]1(c2ccc(-c3cnn(C(F)F)c3)cc2)NC(=N)N([C@H](COC(=O)N(CC(F)(F)F)C2CC2)c2ccc(Cl)c(-c3ncn[nH]3)c2)C1=O` [Compound 95], the EC50 under setting [1] was 30.4 nM.

On to `CC1(NC(=O)OC[C@H](c2ccc(Cl)c(-c3ncnn3C(F)F)c2)N2C(=N)N[C@](CC(C)(C)C(F)(F)F)(c3ccc(-c4cnn(C5CC5)n4)cc3)C2=O)CC1` [Compound 157], for which the EC50 under setting [1] came out at 7.64 nM.

As for `CC(C)(C)C[C@]1(c2ccc(-c3cnn(C(F)F)c3)cc2)NC(=N)N([C@H](COC(=O)NC2CC2)c2ccc(Cl)c(-c3cc[nH]n3)c2)C1=O` [Compound 24], under setting [1], the EC50 came to 68.2 nM.

As for `CC(C)(C)C[C@]1(c2ccc(-c3cnn(C(F)F)c3)cc2)NC(=N)N([C@H](COC(=O)NC2(C(F)(F)F)CC2)c2ccc(C#N)c(-c3ncnn3C(F)F)c2)C1=O` [Compound 140], the EC50 under setting [1] came out at 266 nM.

With `CC(C)(C)C[C@]1(c2ccc(-c3cnn(C(F)F)c3)cc2)NC(=N)N([C@H](CO)c2ccc(Cl)c(-n3cncn3)c2)C1=O` [Compound 246], under setting [1], the half-maximal effective concentration (EC50) turned out to be 84.3 nM.

In the case of `CC(C)(C)C[C@]1(c2ccc(-c3cn(C4(C(F)(F)F)CC4)nn3)cc2)NC(=N)N([C@H](COC(=O)NC2(C(F)(F)F)CC2)c2ccc(Cl)c(-n3ncnc3C(F)F)c2)C1=O` [Compound 364], the EC50 under setting [1] was determined as 21.6 nM.

Consider `CC(C)(C)C[C@]1(c2ccc(-c3cnn(C(F)F)c3)cc2)NC(=N)N([C@H](COC(=O)N2CC3(CCO3)C2)c2ccc(Cl)c(-c3ncn[nH]3)c2)C1=O` [Compound 92], for which the EC50 under setting [1] came out at 113 nM.

As to `CC(C)(C)C[C@H]1C(=O)N([C@H](COC(=O)NC(C)(C)C(F)F)c2ccc(F)c(-c3ncnn3C(F)F)c2)C(=N)N1c1ccc(-c2cnn(C(F)F)c2)cc1` [Compound 124], for the setting “MT-4 cells”, the EC50 stood at 65.3 nM.

As to `CC(C)(C)C[C@]1(c2ccc(-c3cnn(C(F)F)c3)cc2)NC(=N)N([C@H](COC(=O)NC2(C)CC2)c2ccc(OC(F)(F)F)c(-n3cncn3)c2)C1=O` [Compound 251], under setting [1], the concentration for a half-maximal effect (EC50) is 85.7 nM.

Consider `COc1ccc([C@@]2(CC(C)(C)C)NC(=N)N([C@H](COC(=O)N(C)C)c3ccc(Cl)c(-c4nccn4C)c3)C2=O)c(F)c1` [Compound 9], for which the EC50 under setting [1] was found to be 1690 nM.

As to `CC(C)(C)C[C@]1(c2ccc(-c3cnn(C4CC4)c3)c(F)c2)NC(=N)N([C@H](COC(=O)NC2(C(F)(F)F)CC2)c2ccc(Cl)c(-c3ncnn3C(F)F)c2)C1=O` [Compound 144], under setting [1], the 50% effective concentration (EC50) was 7.92 nM.

For `CC(C)(C)C[C@]1(c2ccc(-c3cnn(C4CC4)c3)cc2)NC(=N)N([C@H](COC(=O)N[C@H]2CC2(F)F)c2ccc(Cl)c(-n3ncnc3C(F)F)c2)C1=O` [Compound 294], under setting [1], the EC50 amounted to 8.74 nM.

As for `CC(C)(C)C[C@]1(c2ccc(-c3cnn(C(F)F)c3)cc2)NC(=N)N([C@H](COC(=O)N2CC(C)(C#N)C2)c2ccc(Cl)c(-c3ncn[nH]3)c2)C1=O` [Compound 85], the EC50 under setting [1] worked out at 112 nM.

On to `COc1ccc([C@@]2(CC(C)(C)C)NC(=N)N([C@H](COC(=O)NC3(C(F)(F)F)CC3)c3ccc(Cl)c(-n4ncnc4C(F)F)c3)C2=O)c(F)c1F` [Compound 228], for which, under setting [1], the EC50 turned out to be 14.3 nM.

Consider `CC(C)(C)C[C@]1(c2ccc(-c3cnn(C(F)F)c3)cc2)NC(=N)N([C@H](COC(=O)NC2(C(F)(F)F)CC2)c2ccc(Cl)c(C#N)c2)C1=O` [Compound 71], for which, under setting [1], the EC50 worked out at 324 nM.

As to `CC(C)(C)C[C@]1(c2ccc(-c3ccns3)cc2)NC(=N)N([C@H](COC(=O)NC2(C(F)(F)F)CC2)c2ccc(Cl)c(-n3cncn3)c2)C1=O` [Compound 321], under setting [1], the EC50 was determined as 20.8 nM.

As to `CC(C)(C)C[C@]1(c2ccc(-c3cnn(C(F)F)c3)cc2)NC(=N)N([C@H](CO)c2ccc(Cl)c(-c3ncn[nH]3)c2)C1=O` [Compound 42], under setting [1], the EC50 was determined as 103 nM.

For `CC(C)(C)C[C@]1(c2ccc(-c3cnn(C(F)F)c3)cc2)NC(=N)N([C@H](COC(=O)N2CC3(CC3)C2)c2ccc(Cl)c(-c3ncn[nH]3)c2)C1=O` [Compound 87], under setting [1], the half-maximal effective concentration (EC50) was 38.5 nM.

As for `CC(C)(C)C[C@]1(c2ccc(-c3ccccn3)cc2F)NC(=N)N([C@H](COC(=O)NC2(C(F)(F)F)CC2)c2ccc(Cl)c(-n3ncnc3C(F)F)c2)C1=O` [Compound 196], the EC50 under setting [1] came to 12.7 nM.

For `CC1(NC(=O)OC[C@H](c2ccc(Cl)c(-n3cccn3)c2)N2C(=N)N[C@](CC(C)(C)C(F)(F)F)(c3cc(F)cc(F)c3)C2=O)CC1` [Compound 262], the concentration giving a half-maximal response (EC50) under setting [1] stood at 1800 nM.

Turning to `CC(C)(C)C[C@]1(c2cc(F)cc(F)c2)NC(=N)N([C@H](COC(=O)NC2(C)CC2)c2ccc(Cl)c(-n3cccn3)c2)C1=O` [Compound 257], the EC50 under setting [1] is 4180 nM.

As to `C[C@H](C(=O)NC[C@H](c1ccc(Cl)c(-c2ncnn2C(F)F)c1)N1C(=N)N[C@](CC(C)(C)C(F)(F)F)(c2ccc(-c3cnn(C4CC4)n3)cc2)C1=O)C(F)(F)F` [Compound 161], the 50% effective concentration (EC50) under setting [1] amounted to 14.3 nM.

As to `C[C@H](NC(=O)OC[C@H](c1ccc(Cl)c(-c2ncnn2C(F)F)c1)N1C(=N)N[C@](CC(C)(C)C)(c2ccc(-c3cn(C45CC(C4)C5)nn3)c(F)c2)C1=O)C(F)(F)F` [Compound 148], the concentration giving a half-maximal response (EC50) under setting [1] worked out at 13.8 nM.
